Measured values reported in patent EP0908183A1, “Dehydroepiandrosterone or derivatives thereof for increasing the content of hyaluronic acid in skin” (INSTITUTE FOR ADVANCED SKIN RESEARCH INC., priority 1997, dated 1999).

Experiments:
[1] = acute toxicity tests with mice; details: mouse, in vivo
From the text: It was confirmed that dehydroepiandrosterone (DHEA), which is used as an active ingredient in the present invention, was effective in increasing the hyaluronic acid content of skin to prevent and treat the symptoms of aging of skin. It was also confirmed that dehydroepiandrosterone was effective in inhibiting scar formation during the healing of an injury to skin. In addition, unlike retinoic acid which is teratogenic and estrogens that induce cardiovascular disorders, DHEA in its stable sulfate form has been commercialized as a drug that aids the process of childbirth and is used in clinical applications.

[2] = tested on: content of hyaluronic acid in skin; experiment: content of hyaluronic acid in skin of aging mice after application to dorsal skin; assay type: in vivo; details: aging mice Balb/c; for efficacy in increasing the content of hyaluronic acid in skin when combined with alimidex: DHEA administered simultaneously with aromatase inhibitor alimidex
From the text: Dehydroepiandrosterone (DHEA) as an ethanol solution at a concentration of 10^-1M was applied to skin of the dorsal part of aging mice (Balb/c, 48 weeks old, in each group consisting of 6 animals) for 5 weeks.
To evaluate the reproducibility of its efficacy, DHEA was applied in various concentrations of 10^-1, 10^-2 and 10^-3M to aging mice (Balb/c, 53 weeks, in each group consisting of 8 animals). Further, in order to see whether DHEA became effective only after it was metabolized to estrodiol, alimidex that inhibited aromatase, which is an enzyme for causing a conversion to estrogens, was administered simultaneously with DHEA. […] This means the concentration of DHEA can be lowered to a tenth of the initial value.

| Compound | LD50 ([1]; iv, injected intravenously) | LD50 ([1]; po, peroral) | LD50 ([1]; sc, injected subcutaneously) | content of hyaluronic acid in skin ([2]; 10^-1M, 53 weeks, reproducibility experiment, Fig. 2) | content of hyaluronic acid in skin ([2]; 10^-2M, 53 weeks, reproducibility experiment, Fig. 2) | efficacy in increasing the content of hyaluronic acid in skin when combined with alimidex ([2]; 53 weeks, Fig. 2) | efficacy in increasing the content of hyaluronic acid in skin when combined with alimidex ([2]; 53 weeks, Fig. 2, listed as dehydroepiandrosterone) | content of hyaluronic acid in skin ([2]; ethanol solution 10^-1M applied to dorsal skin for 5 weeks, 48 weeks old, vs control group, Fig. 1) | content of hyaluronic acid in skin ([2]; aromatase inhibitor applied alone, 53 weeks, Fig. 2) |
| --- | --- | --- | --- | --- | --- | --- | --- | --- | --- |
| C[C@]12CC[C@H](O)CC1=CC[C@@H]1[C@@H]2CC[C@]2(C)C(=O)CC[C@@H]12 [DHEA, dehydroepiandrosterone] | 274 mg/kg | ≥ 10000 mg/kg | 899 mg/kg | statistically significant increase | statistically significant increase | not suppressed | not lowered | increased the content of hyaluronic acid in skin with a statistically significant difference from the control group |  |
| CC(C)(C#N)c1cc(Cn2cncn2)cc(C(C)(C)C#N)c1 [alimidex, reference compound] |  |  |  |  |  |  |  |  | no ability to increase the content of hyaluronic acid |
